Experimental data published in the supplement of paper PMC10307832.

Tests used:
Experiment in all cases: relative viability (nuclei count vs DMSO), 5 days (fraction); higher = more cells survive
[1] = compound: C#Cc1cccc(Nc2ncnc3cc(OC)c(OCCCCCCC(=O)NO)cc23)c1 [CUDC-101] + C[C@]1(O)C[C@@H](c2nc(-c3ccc4ccc(-c5ccccc5)nc4c3)c3c(N)nccn32)C1 [Linsitinib] (partner 1 µM)
Summary of the method: (§1)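 Relative viability was taken as the ratio of nuclei in treated wells to nuclei in vehicle wells. Lung cancer cell lines in 1536-well plates received compounds by pin tool one day after seeding, either one drug alone or a fixed anchor-drug dose plus five library-drug doses (not always all listed) in √10 steps. Nuclei were counted on 4× images after 5 days of treatment, and values are medians of duplicate plates.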

[2] = compound: C1=CC=C2C(=C1)N=C(S2)C(C#N)C3=NC(=NC=C3)NCCC4=CN=CC=C4 + CC(C)C[C@H](NC(=O)[C@H](Cc1ccccc1)NC(=O)c1cnccn1)B(O)O [Bortezomib] (partner 0.002 µM)
Summary of the method: as §1

[3] = compound: C1=CC=C2C(=C1)N=C(S2)C(C#N)C3=NC(=NC=C3)NCCC4=CN=CC=C4 + Cc1cc(Nc2cc(N3CCN(C)CC3)nc(Sc3ccc(NC(=O)C4CC4)cc3)n2)n[nH]1 [Tozasertib] (partner 0.1 µM)
Summary of the method: as §1

[4] = compound: COc1cc2/c(=N/c3ccc(Br)cc3F)nc[nH]c2cc1OCC1CCN(C)CC1 [Vandetanib] + CS(=O)(=O)CCNCc1ccc(-c2ccc3ncnc(Nc4ccc(OCc5cccc(F)c5)c(Cl)c4)c3c2)o1 [Lapatinib] (partner 2 µM)
Summary of the method: as §1

Row | Cell Line | relative viability ([1]; first compound 0.01 µM) | relative viability ([1]; first compound 0.03162 µM) | relative viability ([1]; first compound 0.1 µM) | relative viability ([1]; first compound 0.3162 µM) | relative viability ([1]; first compound 1 µM) | relative viability ([2]; first compound 0.005 µM) | relative viability ([2]; first compound 0.01581 µM) | relative viability ([2]; first compound 0.05 µM) | relative viability ([2]; first compound 0.1581 µM) | relative viability ([2]; first compound 0.5 µM) | relative viability ([3]; first compound 0.005 µM) | relative viability ([3]; first compound 0.01581 µM) | relative viability ([3]; first compound 0.05 µM) | relative viability ([3]; first compound 0.1581 µM) | relative viability ([3]; first compound 0.5 µM) | relative viability ([4]; first compound 0.02 µM) | relative viability ([4]; first compound 0.06325 µM) | relative viability ([4]; first compound 0.2 µM) | relative viability ([4]; first compound 0.6325 µM) | relative viability ([4]; first compound 2 µM)
1 | NCI-H1355 | 0.887 | 0.761 | 0.822 | 0.739 | 0.645 | 1.1 | 1.1 | 1.22 | 1.27 | 1.1 | 0.445 | 0.516 | 0.463 | 0.594 | 0.385 | 0.984 | 0.926 | 0.963 | 1.05 | 0.924
2 | NCI-H1437 | 1.16 | 0.842 | 0.957 | 0.983 | 0.4 | 0.475 | 0.569 | 0.848 | 0.652 | 0.429 | 0.355 | 0.389 | 0.414 | 0.401 | 0.325 | 0.758 | 0.767 | 0.764 | 0.76 | 0.806
3 | NCI-H1651 | 1.14 | 0.866 | 0.996 | 1.04 | 0.912 | 0.636 | 0.924 | 0.935 | 1.05 | 0.957 | 0.618 | 0.793 | 0.518 | 0.661 | 0.457 | 0.776 | 0.834 | 0.743 | 0.698 | 0.846
4 | NCI-H1666 | 0.747 | 0.741 | 0.759 | 0.84 | 0.519 | 1.12 | 0.867 | 0.673 | 0.899 | 0.822 | 0.642 | 0.615 | 0.541 | 0.651 | 0.617 | 0.59 | 0.658 | 0.444 | 0.739 | 0.629
5 | NCI-H1734 | 0.948 | 0.796 | 0.858 | 0.961 | 0.704 | 0.789 | 0.895 | 0.912 | 1.07 | 0.831 | – | 0.247 | 0.248 | 0.264 | 0.267 | 0.951 | 1.02 | 1.11 | 1.04 | 0.991
6 | NCI-H1755 | 1.04 | 0.988 | 0.994 | 0.986 | 0.968 | 0.943 | 1.07 | 0.996 | 1.13 | 0.884 | 0.448 | 0.544 | 0.563 | 0.598 | 0.584 | 1.06 | 0.978 | 0.983 | 1.02 | 1.01
7 | NCI-H1915 | 1.1 | 1.16 | 1.07 | 1.11 | 1 | 0.552 | 1.05 | 0.964 | 1.19 | 0.647 | 0.343 | 0.455 | 0.442 | 0.534 | 0.305 | 0.905 | 0.972 | 1.05 | 0.93 | 0.928
8 | NCI-H1975 | 1.1 | 0.881 | 1.01 | 0.888 | 0.905 | 0.377 | 0.41 | 0.367 | 0.414 | 0.307 | 0.458 | 0.741 | 0.635 | 0.878 | 0.203 | 0.846 | 0.831 | 0.862 | 0.858 | 0.81
9 | NCI-H1993 | 0.755 | 0.756 | 0.738 | 0.772 | 0.705 | 1.02 | 1.07 | 0.886 | 1.1 | 1.06 | 0.625 | 0.657 | 0.521 | 0.608 | 0.577 | 0.728 | 0.801 | 0.663 | 0.923 | 0.786
10 | NCI-H2009 | 1.21 | 1.14 | 1.19 | 1.2 | 1.17 | 0.936 | 0.906 | 1.03 | 1.08 | 0.993 | 0.683 | 0.747 | 0.65 | 0.763 | 0.629 | 0.848 | 0.887 | 1.04 | 0.981 | 1.06
11 | NCI-H2023 | 0.636 | 0.482 | 0.606 | 0.776 | 0.608 | 0.893 | 0.956 | 0.942 | 1.14 | 1.02 | 0.288 | 0.386 | 0.251 | 0.275 | 0.136 | 0.814 | 0.694 | 0.763 | 0.943 | 0.854
12 | NCI-H2085 | 0.808 | 0.985 | 0.914 | 0.929 | 0.792 | 0.861 | 1.05 | 0.781 | 1.24 | 0.94 | 0.826 | 0.821 | 0.744 | 0.813 | 0.566 | 0.749 | 0.706 | 0.837 | 0.868 | 0.748
13 | NCI-H2087 | 0.916 | 0.87 | 1.01 | 0.882 | 0.812 | 0.567 | 0.809 | 0.786 | 0.834 | 0.512 | 0.201 | 0.229 | 0.234 | 0.199 | 0.211 | 0.894 | 0.916 | 0.988 | 1.06 | 1.08
14 | NCI-H2126 | 0.742 | 0.646 | 0.733 | 0.648 | 0.586 | 1.07 | 1.15 | 1.06 | 1.16 | 1.11 | 0.709 | 0.837 | 0.823 | 0.934 | 0.681 | 0.698 | 0.747 | 0.805 | 0.724 | 0.768
15 | NCI-H2228 | 0.894 | 0.652 | 0.625 | 0.722 | 0.949 | 0.828 | 1.09 | 1.16 | 1.1 | 0.997 | 0.251 | 0.232 | 0.211 | 0.187 | 0.226 | 1.32 | 0.903 | – | 1.32 | 1.23
16 | NCI-H2347 | 1.09 | 0.91 | 0.963 | 1.05 | 0.98 | 1.12 | 1.07 | – | 1.13 | 0.962 | 0.758 | 0.533 | 0.574 | 0.599 | 0.412 | 0.972 | 0.701 | 0.913 | 0.964 | 0.89
